Assays:
LPAR3 = LPAR3 (Homo sapiens (Human), UniProt Q9UBY5); assay: Calcium flux assay using FLIPR, LPAR3 antagonist activity; type: cell-based; conditions: for IC50: antagonist mode, calcium flux
Method: (§1) Calcium Flux Assay Using Fluorometric Imaging Plate Reader (FLIPR)
(§2) Dye Loading and Assay: Loading Buffer (FLIPR Calcium-4, Molecular Devices) was prepared by dissolving the contents of one bottle into 100 mL Hank's Balanced Salt Solution containing 20 mM HEPES and 2.5 mM probenecid. Plates were loaded onto Biotek plate washer and growth media was removed and replaced with 20 μL of Hank's Balanced Salt Solution containing 20 mM HEPES and 2.5 mM probenecid, followed by 25 μL of Loading Buffer. The plates were then incubated for 30 minutes at 37° C.
(§3) During the incubation, test compounds were prepared by adding 90 μL of HBSS/20 mM HEPES/0.1% BSA buffer to 2 μL of serially diluted compounds. To prepare serial dilutions, 10 mM stocks of compounds were prepared in 100% DMSO. The compound dilution plate was set up as follows: well #1 received 29 μL of stock compound and 31 μL DMSO. Wells 2-10 received 40 μL of DMSO. After mixing, 20 μL of solution from well #1 was transferred into well #2, followed by 1:3 serial dilutions out 10 steps. 2 μL of diluted compound was transferred into duplicate wells of 384 well “assay plate” and then 90 μL of buffer was added.
(§4) After incubation, both the cell and “assay” plates were brought to the FLIPR and 20 μL of the diluted compounds were transferred to the cell plates by the FLIPR. Compound addition was monitored by the FLIPR to detect any agonist activity of the compounds. Plates were then incubated for 30 minutes at room temperature protected from light. After the incubation, plates were returned to the FLIPR and 20 μL of 4.5× concentrated agonist was added to the cell plates. During the assay, fluorescence readings were taken simultaneously from all 384 wells of the cell plate every 1.5 seconds. Five readings were taken to establish a stable baseline, then 20 μL of sample was rapidly (30 μL/sec) and simultaneously added to each well of the cell plate. The fluorescence was continuously monitored before, during and after sample addition for a total elapsed time of 100 seconds. Responses (increase in peak fluorescence) in each well following agonist addition was determined. The initial fluorescence reading from each well, prior to ligand stimulation, was used as zero baseline value for the data from that well. The responses were expressed as % inhibition of the buffer control. The IC50 value, defined as the concentration of a compound that is required for 50% inhibition of the buffer control, was calculated by fitting the percent inhibition data for 10 concentrations to a sigmoidal dose-response (4 parameter logistic) model using Genedata Condoseo program [model 205, F(x)=(A+(B−A)/(1+((C/x)^D))))].

[1] = target: human recombinant LPA1 Lysophospholipid receptor (Homo sapiens (Human), UniProt Q92633); assay: Calcium flux assay using FLIPR, LPAR1 antagonist activity; type: cell-based; conditions: for IC50: ChemiScreen stable cell line, antagonist mode, calcium flux
Method: as §1
Cell Culture Conditions: The ChemiScreen Calcium-optimized stable cell line containing the human recombinant LPA1 Lysophospholipid receptor was purchased from Chemicon International, Inc./Millipore. The cells were cultured in DMEM-high glucose supplemented with 10% fetal bovine serum, 2 mM glutamine, 100 U/mL penicillin/100 μg/mL streptomycin, 1× non-essential amino acids, 10 mM HEPES and 0.25 mg/mL Geneticin. Cells were harvested with trypsin-EDTA and counted using ViaCount reagent. The cell suspension volume was adjusted to 2.0×10^5 cells/mL with complete growth media. Aliquots of 50 μL were dispensed into 384 well black/clear tissue culture treated plates (BD) and the microplates were placed in a 37° C. incubator overnight. The following day plates were used in the assay.
as §2, §3, §4

LPAR3, sequence (Q9UBY5 whole entry, species assumed): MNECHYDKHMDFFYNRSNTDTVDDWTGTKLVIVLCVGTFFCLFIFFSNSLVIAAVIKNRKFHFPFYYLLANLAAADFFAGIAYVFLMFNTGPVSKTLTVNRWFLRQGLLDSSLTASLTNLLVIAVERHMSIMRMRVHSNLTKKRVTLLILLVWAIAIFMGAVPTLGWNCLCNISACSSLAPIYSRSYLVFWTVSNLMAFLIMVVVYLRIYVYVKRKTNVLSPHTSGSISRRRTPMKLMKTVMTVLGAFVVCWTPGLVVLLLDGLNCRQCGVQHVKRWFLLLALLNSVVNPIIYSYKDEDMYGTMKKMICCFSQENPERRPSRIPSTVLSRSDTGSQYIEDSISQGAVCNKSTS
human recombinant LPA1 Lysophospholipid receptor, sequence (Q92633 whole entry): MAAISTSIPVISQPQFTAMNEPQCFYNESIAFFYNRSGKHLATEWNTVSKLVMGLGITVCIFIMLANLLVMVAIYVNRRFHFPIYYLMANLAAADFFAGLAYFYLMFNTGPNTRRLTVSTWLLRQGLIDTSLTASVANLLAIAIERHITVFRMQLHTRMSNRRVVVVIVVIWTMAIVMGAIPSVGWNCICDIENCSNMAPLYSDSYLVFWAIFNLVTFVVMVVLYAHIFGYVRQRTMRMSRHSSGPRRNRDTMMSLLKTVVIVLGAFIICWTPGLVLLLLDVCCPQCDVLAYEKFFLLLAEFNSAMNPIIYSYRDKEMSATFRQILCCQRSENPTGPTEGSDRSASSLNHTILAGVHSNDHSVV

| IC50 (LPAR3) | inhibition at 30 µM (LPAR3) | IC50 [1] | inhibition at 30 µM ([1]; at 30 μM) | SMILES |
| --- | --- | --- | --- | --- |
| 21.9 µM | 58.2% | 0.048 µM | – | C[C@@H](OC(=O)Nc1c(-c2ccc(-c3ccc(CC(=O)O)cc3)cc2)nnn1C)c1ccccc1 [Example 3, {4′-[1-Methyl-5-((R)-1-phenyl-ethoxycarbonylamino)-1H-[1,2,3]triazol-4-yl]-biphenyl-4-yl}-acetic acid] |
| 0.279 µM | – | 0.046 µM | – | CC(OC(=O)Nc1c(-c2ccc(-c3ccc(C4(C(=O)O)CC4)cc3)cc2)nnn1C)c1cccc(C(F)(F)F)c1 (racemic) [Example 4, 1-(4′-{1-Methyl-5-[1-(3-trifluoromethyl-phenyl)-ethoxycarbonylamino]-1H-[1,2,3]triazol-4-yl}-biphenyl-4-yl)-cyclopropanecarboxylic acid] |
| 0.132 µM | – | 0.018 µM | – | C[C@@H](OC(=O)Nc1c(-c2ccc(-c3ccc(C4(C(=O)O)CC4)cc3)cc2)nnn1C)c1cccc(C(F)(F)F)c1 [Example 6, 1-(4′-{1-Methyl-5-[(R)-1-(3-trifluoromethyl-phenyl)-ethoxycarbonylamino]-1H-[1,2,3]triazol-4-yl}-biphenyl-4-yl)-cyclopropanecarboxylic acid] |
| > 30 µM | – | > 30 µM | – | C[C@@H](OC(=O)Nc1nnn(C)c1-c1ccc(-c2ccc(C3(C(=O)O)CC3)cc2)cc1)c1ccccc1 [Example 8, 1-{4′-[3-Methyl-5-((R)-1-phenyl-ethoxycarbonylamino)-3H-[1,2,3]triazol-4-yl]-biphenyl-4-yl}-cyclopropanecarboxylic acid] |
| 18.4 µM | 62% | 4.45 µM | – | C[C@@H](OC(=O)Nc1c(-c2ccc(-c3cccc(C4(C(=O)O)CC4)c3)cc2)nnn1C)c1ccccc1 [Example 9, (R)-1-(4′-(1-Methyl-5-((1-phenylethoxy)carbonylamino)-1H-1,2,3-triazol-4-yl)biphenyl-3-yl)cyclopropanecarboxylic acid] |
| 2.31 µM | – | 0.0188 µM | – | C[C@@H](OC(=O)Nc1c(-c2ccc(-c3ccc(C4(C(=O)NS(C)(=O)=O)CC4)cc3)cc2)nnn1C)c1ccccc1 [Example 12, {5-[4′-(1-Methanesulfonylaminocarbonyl-cyclopropyl)-biphenyl-4-yl]-3-methyl-3H-[1,2,3]triazol-4-yl}-carbamic acid (R)-1-phenyl-ethyl ester] |
| > 30 µM | – | > 30 µM | – | COC(=O)C1(c2ccc(-c3ccc(-c4nnn(C)c4NC(=O)O[C@H](C)c4ccccc4)c(F)c3)cc2)CC1 [Example 10, 1-{3′-Fluoro-4′-[1-methyl-5-((R)-1-phenyl-ethoxycarbonylamino)-1H-[1,2,3]triazole-4-yl]-biphenyl-4-yl}-cyclopropanecarboxylic acid methyl ester] |
| 2.29 µM | – | 0.018 µM | – | C[C@@H](OC(=O)Nc1c(-c2ccc(-c3ccc(C4(C(=O)O)CC4)cc3)cc2)nnn1C)c1ccccc1 [Example 2, 1-{4′-[1-Methyl-5-((R)-1-phenyl-ethoxycarbonylamino)-1H-[1,2,3]triazol-4-yl]-biphenyl-4-yl}-cyclopropanecarboxylic acid] |
| 27.4 µM | 62% | 0.018 µM | – | C[C@@H](OC(=O)Nc1c(-c2ccc(-c3ccc(C4(C(=O)O)CC4)cc3)cc2F)nnn1C)c1ccccc1 [Example 11, 1-{3′-Fluoro-4′-[1-methyl-5-((R)-1-phenyl-ethoxycarbonylamino)-1H-[1,2,3]triazole-4-yl]-biphenyl-4-yl}-cyclopropanecarboxylic acid] |
| > 30 µM | – | 0.07 µM | – | CC(C)[C@@H](C)OC(=O)Nc1c(-c2ccc(-c3ccc(C4(C(=O)O)CC4)cc3)cc2)nnn1C [Example 7, 1-{4′-[5-((R)-1,2-Dimethyl-propoxycarbonylamino)-1-methyl-1H-[1,2,3]triazol-4-yl]biphenyl-4-yl}-cyclopropanecarboxylic acid] |
| 18.6 µM | 68% | 0.058 µM | – | C[C@@H](OC(=O)Nc1c(-c2ccc(C3CCC(CC(=O)O)CC3)cc2)nnn1C)c1ccccc1 (stereo partly drawn) [Example 14, (4-{4-[1-Methyl-5-((R)-1-phenyl-ethoxycarbonylamino)-1H-[1,2,3]triazol-4-yl]-phenyl}-cyclohexyl)-acetic acid] |
| 6.31 µM | – | 2.66 µM | – | C[C@H](OC(=O)Nc1c(-c2ccc(-c3ccc(C4(C(=O)O)CC4)cc3)cc2)nnn1C)c1cccc(C(F)(F)F)c1 [Example 5, 1-(4′-{1-Methyl-5-[(S)-1-(3-trifluoromethyl-phenyl)-ethoxycarbonylamino]-1H-[1,2,3]triazol-4-yl}-biphenyl-4-yl)-cyclopropanecarboxylic acid] |
| 0.0657 µM | – | 0.0245 µM | – | C[C@@H](OC(=O)Nc1c(-c2ccc(-c3ccc(C4(C(=O)NS(C)(=O)=O)CC4)cc3)cc2)nnn1C)c1cccc(C(F)(F)F)c1 [Example 13, {5-[4′-(1-Methanesulfonylaminocarbonyl-cyclopropyl)-biphenyl-4-yl]-3-methyl-3H-[1,2,3]triazol-4-yl}-carbamic acid (R)-1-(3-trifluoromethyl-phenyl)-ethyl ester] |
| > 30 µM | – | 21.9 µM | 52.3% | C[C@@H](OC(=O)Nc1c(-c2ccc(Br)cc2)nnn1C)c1ccccc1 [Example 1, [5-(4-Bromo-phenyl)-3-methyl-3H-[1,2,3]triazol-4-yl]-carbamic acid (R)-1-phenyl-ethyl ester] |
